Source: patent publication US5167963A, “8,10-dideazatetrahydrofolic acid derivatives” (SRI International, priority 1990, dated 1992)
Read-outs that look alike come from different tables or passages of the source.

Tests used:
[1] = target: T1, glycinamide ribotide formyl transferase (FGAR) (Lacticaseibacillus casei, UniProt A0AAN1KEB7); assay: Enzyme assay for FGAR (glycinamide ribotide formyl transferase) inhibition; format: biochemical, Lactobacillus casei; conditions: in words
T1 sequence (A0AAN1KEB7 1-189): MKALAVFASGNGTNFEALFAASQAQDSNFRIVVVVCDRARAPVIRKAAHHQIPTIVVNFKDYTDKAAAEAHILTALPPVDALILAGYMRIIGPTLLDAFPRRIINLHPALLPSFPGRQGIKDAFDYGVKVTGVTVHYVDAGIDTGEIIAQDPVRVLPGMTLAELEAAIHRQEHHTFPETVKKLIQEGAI
Description: Inhibition of the glycinamide ribotide formyl transferase (FGAR) and amino-imidazole carboxamide ribotide formyl transferase (AICAR) enzymes was determined by the following test procedure.
Lactobacillus casei extract protein (20 μg) is incubated with 45 μmol of Tris-HCl buffer; pH 7.5, 90 μmol of 2-mercaptoethanol, 0.20 μmol of α,β-glycine-amideribotide and 50 nmol of (6R)-10-formyltetrahydrofolate in 0.9 ml for 1 minute at 30° C. The formation of tetrahydrofolate is followed by change in the ultraviolet maximum at 298 nm. For assay of inhibition the test compounds are added along with the 6R-10-formyl FAHy and the concentration that inhibits the reaction by 50% (Ic50) is determined.

[2] = Cytotoxicity (focus and potency of cytotoxic action); format: cell-based; conditions: in words
[3] = system: dihydrofolate reductase; conditions: in words; from prior literature/patents; cited from earlier work
[4] = in words; DeGraw et al; cited from earlier work
[5] = system: L1210 cells; assay: Growth inhibition assay for L1210 cells; format: cell-based; conditions: Mus musculus; 72 hours, murine L1210 cells, RPMI 1640 with 10% fetal calf serum
Description: Murine L1210 cells were obtained as intraperitoneal ascites suspensions from BD2F1 mice. […] Cultures in the logarithmic stage of growth were harvested, resuspended and exposed to test compounds at varying concentrations. Growth of controls was monitored to verify that the growth pattern was normal.

[6] = system: L1210 leukemia; conditions: in words, Taylor et al, U.S. Pat. No. 4,684,653, cited from earlier work
[7] = system: thymidylate synthase; conditions: in words; J. A. R. Mead et al., Cancer Research (1966); cited from earlier work

Nc1nc2c(c(=O)[nH]1)CC(CCc1ccc(C(=O)N[C@@H](CCC(=O)O)C(=O)O)cc1)CC2 (stereo partly drawn) [5,8, 10-trideaza FH4]
inhibition of glycinamide ribotide transformylase (GAR transformylase, FGAR) [1]: devoid of enzyme or cytotoxic action | cytotoxic action [2]: devoid of enzyme or cytotoxic action

Nc1nc2ccc(CCc3ccc(C(=O)N[C@@H](CCC(=O)O)C(=O)O)cc3)nc2c(=O)[nH]1 [8,10-dideazafolic acid]
inhibition of dihydrofolate reductase [3]: did not significantly affect DHFR | antifolate activity [4]: active antifolates

Nc1nc2ccc(CNc3ccc(C(=O)N[C@@H](CCC(=O)O)C(=O)O)cc3)nc2c(=O)[nH]1 [8-deazafolic acid]
inhibition of dihydrofolate reductase [3]: did not significantly affect DHFR

CN(Cc1cnc2nc(N)nc(N)c2n1)c1ccc(C(=O)N[C@@H](CCC(=O)O)C(=O)O)cc1 [Compound 1, methotrexate]
IC50 [5]: 4.3 nM | inhibition of dihydrofolate reductase [3]: inhibiting dihydrofolate reductase (DHFR)

Nc1nc2c(c(=O)[nH]1)CC(CCc1ccc(C(=O)N[C@@H](CCC(=O)O)C(=O)O)cc1)CN2 (stereo partly drawn) [Compound 2, N-(4-[2-(2-amino-4-hydroxy-5,6,7,8-tetrahydropyrido[2,3-d]pyrimidin-6-yl)-ethyl]benzoyl)-L-glutamic acid]
IC50 [5]: 42 nM | inhibition of glycinamide ribotide transformylase (GAR transformylase, FGAR) ([1]; listed as DDTHF): potent inhibitor of GAR transformylase | inhibition of glycinamide ribotide transformylase (GAR transformylase, FGAR) ([1]; listed as Taylor et al compound): clearly an inhibitor of FGAR | cytotoxic action [2]: potent cytotoxin | inhibition of dihydrofolate reductase [3]: weak inhibitor of dihydrofolate reductase | activity against L1210 leukemia ([6]; listed as N-(4-[2-(2-amino-4-hydroxy-5,6,7,8-tetrahydropyrido[2,3-d]pyrimidin-6-yl)- e thy): good activity against L-1210 leukemia which is comparable to methotrexate | activity against L1210 leukemia ([6]; listed as N-(4-[2-(2-amino-4-hydroxy-5,6,7,8-tetrahydropyrido[2,3-d]pyrimidin-6-yl)- ethyl): good activity against L1210 leukemia which is comparable to methotrexate

Nc1nc2c(c(=O)[nH]1)NC(CCc1ccc(C(=O)N[C@@H](CCC(=O)O)C(=O)O)cc1)CC2 (stereo partly drawn) [Compound 3, 8,10-Dideaza-5,6,7,8-tetrahydrofolic Acid]
IC50 [5]: 96.8 nM

CN1c2c(nc(N)[nH]c2=O)CCC1CCc1ccc(C(=O)N[C@@H](CCC(=O)O)C(=O)O)cc1 (stereo partly drawn) [Compound 4, 5-Methyl-8,10-dideaza-5,6,7,8-tetrahydrofolic Acid]
IC50 [5]: 38.2 nM

Nc1nc2c(c(=O)[nH]1)N(C=O)C(CCc1ccc(C(=O)NC(CCC(=O)O)C(=O)O)cc1)CC2 (stereo not drawn) [Compound 5]
IC50 [5]: 657 nM

Nc1nc2c(c(=O)[nH]1)N[C@@H](CCNc1ccc(C(=O)NC(CCC(=O)O)C(=O)O)cc1)CN2 (stereo partly drawn) [tetrahydrohomofolate]
inhibition of thymidylate synthetase in vitro [7]: potent inhibitor
